# Entries after “also recorded” stand apart in the source; their conditions may differ.
# Assays:
# Prkg1^RQ/+ mice [1] = assay: Aging study: cobinamide in drinking water, Prkg1^RQ/+ mice; format: in vivo
# PKG1^RQ = molecular target: T1, PKG1^RQ (Homo sapiens, UniProt Q13976, R177Q); assay: Kinase activity of purified PKG1^RQ; format: biochemical; conditions: purified enzyme
# T1 construct: FLAG (N); made in house; host or cells: transiently transfected 293T cells (ATCC, CRL3216)
# T1 sequence (Q13976 1-671 R177Q): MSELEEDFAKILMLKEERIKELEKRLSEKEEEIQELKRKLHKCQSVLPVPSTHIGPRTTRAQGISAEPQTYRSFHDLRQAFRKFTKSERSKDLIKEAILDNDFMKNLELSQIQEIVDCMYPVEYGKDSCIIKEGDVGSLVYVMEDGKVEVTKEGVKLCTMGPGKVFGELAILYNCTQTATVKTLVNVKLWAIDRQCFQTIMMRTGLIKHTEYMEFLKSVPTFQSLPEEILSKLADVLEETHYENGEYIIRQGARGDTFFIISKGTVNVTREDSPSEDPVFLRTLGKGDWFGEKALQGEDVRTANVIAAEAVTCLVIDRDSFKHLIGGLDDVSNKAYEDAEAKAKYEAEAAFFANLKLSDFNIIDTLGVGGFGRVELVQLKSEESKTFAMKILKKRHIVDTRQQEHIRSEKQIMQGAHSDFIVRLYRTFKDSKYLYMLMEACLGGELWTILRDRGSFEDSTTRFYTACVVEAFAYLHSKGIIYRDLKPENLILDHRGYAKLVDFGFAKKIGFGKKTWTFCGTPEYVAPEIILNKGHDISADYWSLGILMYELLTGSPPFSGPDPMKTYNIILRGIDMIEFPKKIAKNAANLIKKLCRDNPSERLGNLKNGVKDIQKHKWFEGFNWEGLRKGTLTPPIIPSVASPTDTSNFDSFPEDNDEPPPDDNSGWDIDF
# Description: PKG1 Purification and Activity Assays. Wild type and mutant PKG1^RQ were expressed with N-terminal FLAG epitope tags in transiently-transfected 293T cells (ATCC, CRL3216), purified with anti-FLAG beads and eluted with FLAG peptide, and kinase activity assays were performed.^41 Kinase activity in SMC and aortic extracts was measured using an optimized peptide in the presence of 1.25 μM protein kinase inhibitor peptide (PKI) to inhibit cAMP-dependent protein kinase.^65 Assays were performed with [γ-^32PO4]ATP (1.3 Ci/mmol; 50 μM) in the presence and absence of 3 μM cGMP, and were linear with time and protein concentration. In some assays, the PKG-specific inhibitory peptide DT2 was included at 10 μM.
# wild type mice = assay: Cobinamide treatment: effects and toxicity in mice; format: in vivo
# Description: (§1) Randomization and Drug Treatment of Mice. At the time of weaning, male and female litter mates were separated and randomly assigned to new cages. At the age of 6 months (aging studies) or 10-14 weeks (TAC studies), matched cages containing mice born within a three week period were randomly assigned to treatment versus vehicle groups. For aging studies, some mice received 1 mM trihistidyl-cobinamine (Cbi) in the drinking water, starting from the age of 6 months until 12 months. For gene expression studies, mice were treated with 1 mM Cbi for one month only, from 11-12 months of age. For TAC studies, some mice received 1 mg/ml N-acetylcysteine (NAC) in the drinking water starting 4 weeks before until 2 weeks after the surgery. The drugs were dissolved freshly each week and filter-sterilized; fluid intake was monitored weekly. The Cbi dose was calculated to be 50 mg/kg/d, and the NAC dose was 500 mg/kg/d. Aquohydroxyl-cobinamide was synthesized from cobalamine by removal of the 5,6-dimethyl-benzimidazol ring; trihistidyl-cobinamide was obtained by adding three molar equivalents of L-histidine to the aquohydroxyl cobinamide.^63 Purity of the drug was >95% by high-pressure liquid chromatography.
# human aortic SMCs = assay: Western blots (VASP phosphorylation, JNK activation) and OxyBlot protein oxidation in human SMCs; format: cell-based
# Description: Western Blotting. Following anesthesia with ketamine (100 mg/kg) and xylazine (10 mg/kg) by intraperitoneal injection, mice were exsanguinated and perfused with ice-cold phosphate-buffered saline (PBS) containing protease inhibitor cocktail (Calbiochem #539131). Aortas were excised, cleaned from surrounding tissue, and snap-frozen in liquid nitrogen within 15 min of euthanasia. Frozen aortas were pulverized and sonicated (3×10 sec) in ice-cold RIPA buffer (50 mM NaCl, 50 mM Tris-HCl, pH 8, 1% NP-40, 0.1% SDS, 0.5% sodium deoxycholate) supplemented with 1 mM NaF, 1 mM β-glycerolphosphate, and protease inhibitor cocktail. Western blots were developed with primary antibodies specific for PKG1 (1:1000, Cell Signaling Technology; 3248, […] (1:1000, Cell Signaling Technology; 3114), GAPDH (1:1000, Cell Signaling Technology; 2118), β-actin (1:5000, Santa Cruz Biotechnology; 47778), and JNK-phospho-Thr^183/Tyr^185 (1:1000, Cell Signaling Technology; 9251). Blots were developed and visualized with enhanced chemiluminescence using LI-COR Odyssey (with ImageStudio, V5) or with film in the linear range of exposure (with densitometry scanning using ImageJ (V1.51). Protein carbonyl groups (aldehydes and ketones) were detected using the OxyBlot™ Protein Oxidation Detection Kit (Millipore EMD; S7150). Unprocessed scans of blots are provided in the Source Data file.
# SMC Culture and Adenovirus Infection. Murine aortic SMCs were isolated from the aortas of 8-12 week old wild type and PKG1^RQ/+ mice and were cultured in Smooth Muscle Basal Media (SmBM) containing 20% FBS, pyruvate, HEPES, L-glutamine, penicillin/streptomycin and growth factors (SmBM Bullet kit; CC-4149 from Lonza), as previously described.^69 Two independent cell isolates from wild type and PKG1^RQ mice were used at passage one. Human primary aortic SMCs were purchased from Lifeline Cell Technology (Frederick, MD, FC-0015) and cultured in VascuLife Basal Medium supplemented with recombinant epidermal growth factor, insulin, and fibroblast growth factor-b, ascorbic acid, L-glutamine, 20% FBS, gentamycin, and amphotericin (Vasculife SMC LifeFactors kit; LS-1040 from Lifeline Technologies). Human SMCs were used at passages 3-6. Adenovirus was generated using the ViraPower Adenoviral Expression System (Thermo Fisher).^67 Human SMCs were infected with virus expressing wild type or mutant human PKG1α (containing the R177Q mutation); the MOI was 3-10 and titrated to produce wild type and mutant kinase at 2-3 fold the level of endogenous PKG1 at 72 h post infection. […] For knock-down of NOX2 and NOX4, SMCs were infected with adenovirus expressing shNOX2 or shNOX4 oligomers (downstream of the U6 promoter) at an MOI of 100; H2O2 production and NADPH oxidase activity assays were performed 48 h later (as described below).
# Prkg1^RQ/+ mice [2] = assay: Aortic gene expression by quantitative RT-PCR after Cbi treatment; format: in vivo; conditions: 12 month-old Prkg1^RQ/+ mice, 1 mM Cbi in drinking water for 1 month
# Description: as §1
# Quantitative RT-PCR. Aortas were dissected and snap-frozen as described above; they were pulverized and immersed in Trizol (Molecular Res. Center, TR118). Total RNA was isolated, reverse-transcribed using iScript cDNA synthesis kit (Bio-Rad), and PCR was performed using a MX3005P real-time PCR detection system with Brilliant II SYBR Green Mix (Agilent Technologies) as described.^67 All primers were intron-spanning (except for 18S rRNA), and were tested with serial cDNA dilutions. Relative changes in mRNA expression were analyzed using the comparative 2^−ΔΔCt method, with 18S rRNA and phosphoglycerate kinase-1 serving as internal controls.^68
# [3] = Prkg1^RQ/+ mice, 1 mM Cbi in drinking water from age 6 to 12 months
substance,measurement,setting,value
trihistidyl-cobinamide [Cbi],PKG activity in aortic extracts after treatment of the mice,Prkg1^RQ/+ mice [1]; Cbi-treated mice,nor did Cbi treatment of the mice affect PKG activity
same,"prevention of age-related aortic pathology, including aortic dilation",Prkg1^RQ/+ mice [1]; Prkg1^RQ/+ mice,highly effective
same,SMC apoptosis in aortas,Prkg1^RQ/+ mice [1]; [3],reduced oxidative stress markers and SMC apoptosis in aortas of Prkg1^RQ/+ mice to values in WT mice
same,SMC loss,Prkg1^RQ/+ mice [1]; [3],completely prevented
same,elastin fiber breaks,Prkg1^RQ/+ mice [1]; [3],reduced elastin fiber breaks and media collagen content to levels in WT mice
same,media collagen content,Prkg1^RQ/+ mice [1]; [3],reduced elastin fiber breaks and media collagen content to levels in WT mice
same,oxidative stress markers in aortas,Prkg1^RQ/+ mice [1]; [3],reduced oxidative stress markers and SMC apoptosis in aortas of Prkg1^RQ/+ mice to values in WT mice; also recorded: reduced oxidative stress markers in the aorta
same,aortic dilation,"Prkg1^RQ/+ mice [1]; Prkg1^RQ/+ mice, 1 mM Cbi in drinking water from age 6 to 12 months, ultrasound",completely prevented
same,"amount of Cys^43-oxidized, cross-linked PKG1 dimer in aortas",Prkg1^RQ/+ mice [1]; wild type and Prkg1^RQ/+ mice,no effect
same,activity of purified PKG1^RQ,PKG1^RQ,no effect
same,serum homocysteine concentration,wild type mice; Cbi-treated mice,normal
same,serum methylmalonic acid concentration,wild type mice; Cbi-treated mice,normal
same,vitamin B12-dependent functions,wild type mice; Cbi-treated mice,did not affect
same,toxicity,"wild type mice; judged by normal weight, clinical appearance, blood counts, and liver and kidney function tests",no discernible toxicity
same,effects in wild type mice,"wild type mice; wild type mice, Cbi in drinking water",no significant effects
same,H2O2-induced JNK activation,human aortic SMCs; human SMCs,decreased
same,H2O2-induced protein oxidation,human aortic SMCs; human SMCs,decreased
same,protein oxidation in PKG1^RQ-expressing cells,human aortic SMCs; human SMCs expressing PKG1^RQ,reduced protein oxidation
same,Ctgf mRNA in aortas,Prkg1^RQ/+ mice [2],reduced all five transcripts
same,Hif1a mRNA in aortas,Prkg1^RQ/+ mice [2],reaching levels similar to those observed in wild type mice
same,Nox4 mRNA in aortas,Prkg1^RQ/+ mice [2],reduced all five transcripts
same,Tgfb1 mRNA in aortas,Prkg1^RQ/+ mice [2],reduced all five transcripts
same,Vegfa mRNA in aortas,Prkg1^RQ/+ mice [2],reaching levels similar to those observed in wild type mice
